For data set [1] the following is noted: FIG. 16, n=2.
A short description of data set [2]: Pharmacokinetics of THC IV bolus in Beagle dogs. Conditions: dog, venous plasma, 0.9 mg, IV injection 0.9 mg THC. In kind it is in vivo. The procedure: Two weeks after dosing by inhalation, the same dogs were given a 0.9 mL (adjusted to match the aerosol output measured in the pre- and post-dose aerosol quality testing) bolus IV injection of THC (1 mg/mL THC and sodium ascorbate) in 0.9% NaCl aqueous solution.
(§1) All blood samples measured 0.5 mL and were collected in plastic vials containing K2EDTA as the anticoagulant. The vials were placed on wet ice until centrifugation to recover the plasma. The plasma samples were analyzed for THC, THCA, and the major metabolite (11-nor-9-carboxy-Δ^9-tetrahydrocannabinol) of THC using a mass spectrometry method.
(§2) Non-compartmental modeling of the venous THC plasma concentrations was performed using WinNonlin™ (WinNonlin Professional Version 4.1, Pharsight Corp., Mountain View, Calif.). Characterization of the gamma (third) terminal linear phase for the inhalation and IV portions of the study allowed us to compare the inhalation pharmacokinetics to those of IV.

Data set [3] can be described thus: Pharmacokinetics of THC aerosol by inhalation in Beagle dogs. It is filed as in vivo. Conditions: for Cmax / Tmax / half-life: plasma (venous); for Cmax / Tmax / half-life / AUC(0-inf): 0.93 mg, inhalation 0.93 mg THC + 0.11 THCA, venous plasma THC; for Fraction of THC Emitted Dose in Exhalation: based on 924 μg THC emitted dose; for BA: inhalation vs IV; for THC in Exhaled Breath: 5 sec breath hold; for time of maximum arterial plasma concentration: arterial blood, FIG. 14; for time of venous plasma concentration peak: venous blood, FIG. 15. The procedure:
A study was conducted in order to compare the pharmacokinetics (PK) of delivering THC by inhalation from a thermally labile prodrug to those of an intravenous (IV) bolus. A device consisting of a control electronics PC board, air-flow regulator, inhalation valve, air-flow meter, and indo-tracheal tube was used to generate and administer THC aerosol to Beagle dogs. Two safety mechanisms built into the device prevent harm to the test subject: one that closes the inhalation valve when the selected air volume is delivered to the test subject, and one that vents the system to ambient air if the circuit board loses control over the system (due to power failure, etc.).
The in vivo portion of the study was designed with a target THC emitted dose of 0.98 mg. Aerosol quality samples were captured prior to and immediately following animal dosing in a manner consistent with previous pre-PK development work and the animal dosing parameters. The emitted dose samples were collected on 2 μm Teflon filters, while the particle size samples were collected using an ACI fitted with glass fiber filters. After aerosol collection, the filters were stored in amber vials in a freezer prior to analysis. All results were within the acceptable range determined from a previous development study.
For the inhalation portion, four Beagle dogs (2 male/2 female) were exposed to THC aerosol by forced maneuver inhalation exposure. A breath hold of 5 sec was followed by exhalation into a Teflon filter. The filters were placed in vials for analysis using HPLC. Body weight, inhalation volume, exhalation volume, and quantity of THC in exhalation for each test subject are set forth in Table Three, below.
as §1
Immediately after simultaneous administration of the drug and the prodrug, blood samples were drawn from both the arterial and venous circulation of the test subjects. Arterial sampling was more frequent at the early time points and was stopped at 10 minutes, while venous sampling continued to 24 hours.
as §2

For data set [4] the following is noted: oral dronabinol formulations of THC, cited from earlier work.
Data set [5] is described as follows: Aerosol particle size by Anderson Cascade Impactor. It is filed as physicochemical. The note with it: THC aerosol from THCA film, 1 mg/cm^2, aerosol mass 1 mg, 28.3 L/min. On the procedure: Particle size distribution is characterized by the mass median aerodynamic diameter (MMAD) and the geometric standard deviation (GSD). For thermal condensation aerosols, such as those disclosed herein and in our previous patent applications, particle size is governed by the competing mechanisms of condensation and Brownian aggregation.
All particle size experiments were conducted by vaporizing drug films into an 8-stage Anderson Cascade Impactor (ACI) fitted with a glass fiber filter. The ACI consists of several stages, with each successive stage having a smaller size cutoff. By extracting and determining the mass of drug deposited at each stage, it is possible to estimate the particle size distribution of the aerosol.
An air flow of 28.3 L/min was used to generate the aerosol and distribute it through the ACI. Each stage and filter was extracted with organic solvent and analyzed using HPLC. The MMAD and GSD were calculated from the quantity of aerosol on each stage. The MMAD for the THC aerosol (generated from THCA film, drug loading=1 mg/cm^2; aerosol mass=1 mg) was 2.2 μm and the GSD [84/16] was 2.2. In addition, the fine particle fraction (FPF, MMAD <5 μm) was over 95%. These values are well within the range normally accepted for effective pulmonary deposition.

The nature of data set [6]: Physical stability drop tests of THCA coatings. It is filed as physicochemical. Conditions: up to 1.0 mg/cm^2 on stainless steel, after 6 months storage at various conditions. From the text: An advantage of THCA is that it is a solid that forms a physically stable film, as opposed to Δ^9-THC, which is a viscous oil whose coated films are subject to flow.
Data set [7] can be described thus: Aerosolization of estradiol-t-BOC-Gly-Gly. In kind it is physicochemical. The procedure: The prodrug, estradiol-t-BOC-Gly-Gly (shown in FIG. 12 and prepared as described above), was spray coated onto stainless steel test strips (1.347 mg; […] nominal film thickness). The test articles were placed in the screening device and heated by discharging a capacitor through the foils to thermally convert the prodrug back to estradiol and form a condensation aerosol. Tests were conducted on duplicate foils at each of three temperatures (325° C., 350° C., and 380° C.) determined by the discharge voltage of the capacitor. The aerosol was collected with a Teflon filter, and the trapped aerosol was extracted from the collection apparatus using organic solvent and analyzed using HPLC.
FIG. 17 is a bar graph 1700 showing percent estradiol in aerosol 1702 as a function of vaporization temperature 1704 (n=2). FIG. 18 is a bar graph 1800 showing percent prodrug in aerosol 1802 as a function of vaporization temperature 1804 (n=2).

[8] abbreviates: Beagle, dog, inhaled or intranasal, subject 101.
The mark [9] stands for this setting: Beagle, dog, inhaled or intranasal, subject 102.
[10] abbreviates: Beagle, dog, inhaled or intranasal, subject 103.
The mark [11] stands for this setting: Beagle, dog, inhaled or intranasal, subject 104.
[12] abbreviates: both sexes, Beagle, dog, inhaled or intranasal, mean of 4 dogs.

Where two headings read alike, the source gives them in different places.

As for `CC(C)c1cccc(C(C)C)c1OC(=O)OC(C)(C)C` [Propofol-t-BOC-Ester, O-(t-butoxycarbonyl)-propofol], in data set [1], the “aerosol purity of propofol as a function of vaporization temperature” value was “decrease with increasing vaporization temperature”.

What is called AUC(0-inf) is the area under the concentration-time curve extrapolated to infinity. For orientation: Cmax means the highest concentration seen after dosing. In general, Tmax refers to the time from dosing to the highest level. By half-life is commonly meant the time in which the quantity being followed falls by half. The term bioavailability denotes dose-corrected exposure relative to a reference, in per cent. As to `CCCCCc1cc(O)c2c(c1)OC(C)(C)[C@@H]1CCC(C)=C[C@@H]21` [THC, Δ^9-tetrahydrocannabinol], the area under the curve AUC(0-inf) is 142 ng·h/mL in data set [2] (both sexes, mean of 4 dogs); 139 ng·h/mL in data set [2] (female, subject 103); 118 ng·h/mL in data set [2] (female, subject 104); 164 ng·h/mL in data set [2] (male, subject 101); 146 ng·h/mL in data set [2] (male, subject 102); 92.5 ng·h/mL in data set [3] (both sexes, Beagle, dog, venous plasma, inhaled or intranasal, mean of 4 dogs). Also, the AUC(0-inf) was 1140 ng·h/mL in data set [3] (female, Beagle, dog, venous plasma, inhaled or intranasal, subject 103); 92.6 ng·h/mL in data set [3] (female, Beagle, dog, venous plasma, inhaled or intranasal, subject 104); 99.4 ng·h/mL in data set [3] (male, Beagle, dog, venous plasma, inhaled or intranasal, subject 101); 64.5 ng·h/mL in data set [3] (male, Beagle, dog, venous plasma, inhaled or intranasal, subject 102). Also, the Cmax in data set [2] (both sexes, mean of 4 dogs) was 1780 ng/mL; in data set [2] (female, subject 103) it was 1410 ng/mL; in data set [2] (female, subject 104), 1230 ng/mL; in data set [2] (male, subject 101) it was 3770 ng/mL; in data set [2] (male, subject 102) it was 697 ng/mL; in data set [3] (setting [8]), 341 ng/mL. For the same compound, the Cmax turned out to be 190 ng/mL in data set [3] (setting [9]), 358 ng/mL in data set [3] (setting [10]), 253 ng/mL in data set [3] (setting [11]) and 286 ng/mL in data set [3] (setting [12]). Further, the Tmax in data set [2] (both sexes, mean of 4 dogs) is 0.38 min; in data set [2] (female, subject 103) it was 0.25 min; in data set [2] (female, subject 104), 0.5 min; in data set [2] (male, subject 101), 0.25 min; in data set [2] (male, subject 102), 0.5 min; in data set [3] (setting [8]), 3 min. Besides, the Tmax was 2 min in data set [3] (setting [9]); 2 min in data set [3] (setting [10]); 2 min in data set [3] (setting [11]); 2.3 min in data set [3] (setting [12]); “up to 5 hours” in data set [4]. Besides, the half-life in data set [2] (both sexes, mean of 4 dogs) was determined as 50.8 min; in data set [2] (female, subject 103), 51.3 min; in data set [2] (female, subject 104), 36.6 min; in data set [2] (male, subject 101) it was 18.1 min; in data set [2] (male, subject 102), 97.1 min; in data set [3] (setting [8]), 21 min. Also, the half-life in data set [3] (setting [9]) amounted to 32.5 min; in data set [3] (setting [10]) it was 22.7 min; in data set [3] (setting [11]), 55.8 min; in data set [3] (setting [12]) it was 33 min. The “Fraction of THC Emitted Dose in Exhalation” value in data set [3] (subject 101) is recorded as 2.8%; in data set [3] (subject 102), 3.2%; in data set [3] (subject 103) it was 2.4%; in data set [3] (subject 104) it was 1.7%. Besides, the bioavailability in data set [3] (both sexes, Beagle, dog, venous plasma, inhaled or intranasal, inhalation) was 67%; in data set [4] (typical), “less than 50%”. Besides, in data set [3] (inhalation), the “difference in Tmax between THC and its prodrug Δ^9-THC-2-carboxylic acid” value is 3 fold. In addition, the BA in data set [3] (mean of 4 dogs) worked out at 67.4%; in data set [3] (subject 101), 59.7%; in data set [3] (subject 102), 43.9%; in data set [3] (subject 103) it was 84.5%; in data set [3] (subject 104) it was 81.6%. The “THC in Exhaled Breath” value worked out at 26.2 µg in data set [3] (inhalation, subject 101 (M)); 29.6 µg in data set [3] (inhalation, subject 102 (M)); 22.3 µg in data set [3] (inhalation, subject 103 (F)); 15.8 µg in data set [3] (inhalation, subject 104 (F)). Besides, the “time of maximum arterial plasma concentration” value in data set [3] (inhalation) stood at 90 s. For the same compound, in data set [3] (inhalation), the “time of venous plasma concentration peak” value is “about 150 seconds”.

For `CCCCCc1cc2c(c(O)c1C(=O)O)C1C=C(C)CCC1C(C)(C)O2` (stereo not shown) [THCA, Δ^9-THC-2-carboxylic acid], in data set [5], the “GSD [84/16]” value came to 2.2; the MMAD worked out at 2.2 μm; the “fine particle fraction (FPF, MMAD <5 μm)” value is “over 95%”. Besides, the “physical stability of coating (drop tests)” value in data set [6] is on record as “physically robust”. The “absorption from the lung compared with THC” value in data set [3] (inhalation, FIGS. 14 and 15) is “substantially faster”. For the same compound, in data set [3] (inhalation), the “time of maximum arterial plasma concentration” value is listed as “about 30 seconds” and the “time of venous plasma concentration peak” value was “about 50 seconds”.

Consider `CC(C)(C)OC(=O)NCC(=O)NCC(=O)Oc1ccc2c(c1)CC[C@@H]1[C@@H]2CC[C@]2(C)[C@@H](O)CC[C@@H]12` [estradiol-t-BOC-Gly-Gly, 3-(t-butoxycarbonyl-glycinyl-glycinate)-estradiol], for which the estradiol in aerosol result in data set [7] (325° C., 350° C., and 380° C., n=2, FIG. 17) is “approximately 94%”. In addition, in data set [7] (325° C., 350° C., and 380° C., n=2, FIG. 18), the “unconverted prodrug in captured aerosol” value is 1.5-2%. Besides, in data set [7] (empirical studies), the “thermal conversion of the precursor to estradiol” value is listed as “up to 95%”.
